Assay results from paper PMC3430621, “HPLC–MS/MS Analysis of a Traditional Chinese Medical Formulation of Bu-Yang-Huan-Wu-Tang and Its Pharmacokinetics after Oral Administration to Rats” (PLoS ONE, 2012).
Read-outs that look alike come from different tables or passages of the source.

Tests used:
[1] = Stability of the analytes in rat plasma samples (freeze-thaw, short-term, long-term, autosampler); format: in vitro ADME; conditions: n = 3; for Stability (%) Autosampler stability: autosampler 8°C 12 h; for Stability (%) Short-term stability: room temperature 6 h; for Stability (%) Freeze-thaw stability: three freeze-thaw cycles; for Stability (%) Long-term stability: −20°C 14 days
Experimental: Stability was also assessed using the low, medium and high concentrations of analytes. Freeze-thaw stability was assessed over three freeze-thaw cycles. Short-term stability was determined by placing the samples at room temperature for 6 h. Long-term stability was evaluated by analyzing samples kept at −20°C for 14 days. Autosampler stability was determined by maintaining the samples at the autosampler temperature (8°C) for 12 h. All stabilities were calculating as the ratio of average concentration and freshly prepared samples.

[2] = Pharmacokinetics in conscious freely moving rats after oral administration of BYHWT extract (HPLC-MS/MS of plasma); format: in vivo, Sprague-Dawley rats; conditions: rat plasma, BYHWT extract 10 g/kg p.o.; for Cmax / Tmax / half-life: male, Sprague-Dawley, po, n = 6; for Cmax: read-out: Cmax; for Tmax: read-out: Tmax (converted); for half-life: read-out: t1/2
From the text: The protocol listed below has been reviewed and approved by the Institutional Animal Care and Use Committee (IACUC; approval number 1010409) by the Institutional Animal Experimentation Committee of the National Yang-Ming University. Male pathogen-free Sprague-Dawley rats (250±50 g body weight) were obtained from the Laboratory Animal Center of National Yang Ming University. The animals had free access to food (Laboratory rodent diet 5P14, PMI Feeds, Richmond, IN, USA) and water was allowed at all times. All animal experiments followed the National Yang-Ming University guidelines and procedures for the care of laboratory animals. […] Experimental rats were initially anesthetized with pentobarbital (50 mg/kg, i.p.), and polyethylene tubing was implanted in the right jugular vein for blood sampling. The tube crossed the subcutaneous tissue and was fixed at its exit from the dorsal neck region. The patency tubing was maintained by filling with heparinized saline (20 units/mL). After surgery, the rats were placed in experimental cages and allowed to recuperate for one day. The rats were kept fasted for 12 h and water were available ad libitum before the BYHWT administration. […] In our study, the dose of BYHWT (10 g/kg) was appropriate for oral administration in rats. […] The condensed blood collection in the absorption phase is to figure out the maximum concentration and the time when it reaches the maximum concentration. The time points in the elimination phase are not close. This strategy is commonly used in the pharmacokinetic studies but the total blood consumption should not be over 20% of body blood. In these experimental rats, the total blood sampling volume is within 20% during 12 h. Plasma was separated by centrifuging the blood sample at 6000 rpm for 10 min at 4°C. […] The samples were vortexed and centrifuged at 16,100×g for 10 min. In our micro-analysis, less than 200 μL is needed. Actually, the collected blood volume is around 120-150 μL for each time point. After centrifugation, the plasma samples (50 μL) were vortex-mixed with 100 μL of acetonitrile. The supernatants were collected and filtered. Around 20 μL aliquot of the supernatants was transferred into the vial for analysis by HPLC-MS/MS system. The acetonitrile but not the real sample was used in the needle pre-wash standard procedure [19]. The LC-MS/MS system consisted of an Agilent 1100 series LC with automatic liquid chromatographic sampler, injector, bi-pump and degasser; and Applied Biosystems/MDS Sciex API 3000 tandem quadrupole mass spectrometry equipped with electrospray ionization (ESI) interface using the following parameters: nebulizer gas (NEB):10, curtain gas (CUR): 7, collisionally activated dissociation gas (CAD): 12, ionspray voltage (IS): 5000 V, turbo ionspray temperature (TEM): 450°C. Nitrogen was used in all cases. The mass spectrometer was operated in the positive ion detection mode. […] The following linear gradient program was applied to the analyte with the mobile phase consisting of methanol (0.1% formic acid, solvent A) and NH4OAc (0.1% formic acid, solvent B): 0-1 min: 30-70% A; 1-2 min 70-90%; 2-8 min: 90-90%; 8-9 min: 90-30%, 9-18 min: 30-30%, v/v. […] The flow rate was maintained at […]. Pharmacokinetic parameters including maximum plasma concentration (Cmax), time to reach the maximum concentrations (Tmax), half-life (t1/2), area under concentration-time curve (AUC) and oral clearance (CL) were estimated by a non-compartmental analysis using the pharmacokinetic program, WinNonlin Standard Edition Version 1.1 (Scientific Consulting, Apex, NC, USA). All results were expressed as average mean ± standard deviation (S.D.). ANOVA was used to evaluate differences, and a value of P<0.05 was taken as statistically significant.

[3] = parameters: method as in PMID 17931809; conditions: cited from earlier work

Compound | Stability (%) Autosampler stability ([1]; concentration 1 (µg/mL)) [%] | Stability (%) Short-term stability ([1]; concentration 1 (µg/mL)) [%] | Stability (%) Freeze-thaw stability ([1]; concentration 1 (µg/mL)) [%] | Stability (%) Long-term stability ([1]; concentration 1 (µg/mL)) [%] | Stability (%) Autosampler stability ([1]; concentration 10 (µg/mL)) [%] | Stability (%) Short-term stability ([1]; concentration 10 (µg/mL)) [%] | Stability (%) Freeze-thaw stability ([1]; concentration 10 (µg/mL)) [%] | Stability (%) Long-term stability ([1]; concentration 10 (µg/mL)) [%] | Stability (%) Autosampler stability ([1]; concentration 100 (µg/mL)) [%] | Stability (%) Short-term stability ([1]; concentration 100 (µg/mL)) [%] | Stability (%) Freeze-thaw stability ([1]; concentration 100 (µg/mL)) [%] | Stability (%) Long-term stability ([1]; concentration 100 (µg/mL)) [%] | Cmax [2] [ng/mL] | Tmax [2] [h] | half-life [2] [h] | absorption phase in the plasma concentration-time curve [2] | other results
CCC/C=C1\OC(=O)C2=C1CCC=C2 [Ligustilide, ligustilide] | 2.0±10 | 14±11 | 8.7±5.9 | 6.7±10 | 13±7.2 | 11±10 | 2.7±2.2 | 5.0±14 | −1.6±10 | 12±7.5 | 6.5±1.4 | 23±12 | 7.8 ± 0.2 | 0.75 | 4.45 ± 0.02 | double-peak absorption phase | 
COc1ccc(-c2coc3cc(O[C@@H]4O[C@H](CO)[C@@H](O)[C@H](O)[C@H]4O)ccc3c2=O)cc1 [Ononin, ononin] | 4.7±7.7 | 12±6.3 | 3.9±6.4 | −7.2±10 | −7.0±1.4 | −12±4.6 | −2.5±7.3 | −6.2±2.9 | 8.1±3.8 | 6.7±2.1 | 4.2±1.3 | 3.2±3.9 | 19 ± 4.5 | 0.583 | 2.23 ± 0.16 | single and plateau absorption phase | 
C[C@@]12C[C@@]3(O)O[C@@H](O1)[C@]1(COC(=O)c4ccccc4)[C@H]3C[C@@]12O[C@@H]1O[C@H](CO)[C@@H](O)[C@H](O)[C@H]1O [Paeoniflorin, paeoniflorin] |  |  |  |  | −3.3±7.3 | 7.7±10 | 7.3±4.6 | 21±15 | −1.6±8.2 | −1.8±9.4 | 2.1±1.8 | 10±7.3 | 97 ± 33 | 0.583 | 1.55 ± 0.533 | single and plateau absorption phase | Stability (%) Autosampler stability ([1]; concentration 1000 (µg/mL)): 8.5±5.1%; Stability (%) Short-term stability ([1]; concentration 1000 (µg/mL)): 11±8.4%; Stability (%) Freeze-thaw stability ([1]; concentration 1000 (µg/mL)): 9.5±0.2%; Stability (%) Long-term stability ([1]; concentration 1000 (µg/mL)): 27±9.9%
COc1cc2c(c(OC)c1OC)-c1ccc(OC)c(=O)cc1[C@@H](NC(C)=O)CC2 [colchicine] |  |  |  |  |  |  |  |  |  |  |  |  |  |  |  |  | AUC ([3]; donor rats): 847.7 ± 141.0 µg·min/mL; AUC ([3]; recipient rats): 55.5 ± 29.2 µg·min/mL
